38 molecules from patent US20260308149A1, “NOVEL CARBOXAMIDE DERIVATIVES” (ANGELINI PHARMA S.P.A., priority 2023, published 2026) can be followed below.

One may read the pEC50 as the negative decadic logarithm of the EC50, by convention in mol/L.

Molecules are shown by their SMILES. pEC50: −log10 of the molar value.

T1 sequence (O43526 whole entry): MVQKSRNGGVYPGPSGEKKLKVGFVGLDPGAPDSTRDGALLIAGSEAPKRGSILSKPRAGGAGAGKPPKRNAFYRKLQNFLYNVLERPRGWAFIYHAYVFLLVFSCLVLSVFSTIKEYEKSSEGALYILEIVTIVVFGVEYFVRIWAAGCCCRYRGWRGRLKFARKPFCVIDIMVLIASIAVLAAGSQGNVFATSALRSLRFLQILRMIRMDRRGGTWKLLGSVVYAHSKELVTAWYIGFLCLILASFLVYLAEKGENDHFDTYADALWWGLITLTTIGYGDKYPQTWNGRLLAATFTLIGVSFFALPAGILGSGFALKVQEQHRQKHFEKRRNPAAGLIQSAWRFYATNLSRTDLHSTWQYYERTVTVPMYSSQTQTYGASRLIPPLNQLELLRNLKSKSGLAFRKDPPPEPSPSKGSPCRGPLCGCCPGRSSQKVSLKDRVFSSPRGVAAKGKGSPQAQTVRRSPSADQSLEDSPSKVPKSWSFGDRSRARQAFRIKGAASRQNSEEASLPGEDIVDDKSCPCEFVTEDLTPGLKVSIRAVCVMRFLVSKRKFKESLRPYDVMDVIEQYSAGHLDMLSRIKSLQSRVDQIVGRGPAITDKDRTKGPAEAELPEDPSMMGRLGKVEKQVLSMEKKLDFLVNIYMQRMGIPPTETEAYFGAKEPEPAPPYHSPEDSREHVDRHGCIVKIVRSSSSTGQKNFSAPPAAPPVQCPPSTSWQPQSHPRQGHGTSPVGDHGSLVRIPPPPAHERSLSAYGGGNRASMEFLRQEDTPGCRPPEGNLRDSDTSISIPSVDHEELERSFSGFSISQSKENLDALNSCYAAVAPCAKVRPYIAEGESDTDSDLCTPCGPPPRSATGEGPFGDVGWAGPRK

This experiment has as its target T1, human Kv7.2 (Homo sapiens, UniProt O43526).
T1 construct: expressed in transfected cells
As to the kind of experiment: activation (potentiation) of Kv7.2 current, SyncroPatch 384 electrophysiology in CHO cells stably expressing human Kv7.2. It is filed as cell-based. The settings on record: human Kv7.2 in CHO cells; in presence of 5.6 μM zinc pyrithione; % activation relative to 30 μM ML-213. The procedure, abridged: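 CHO cells stably expressing human Kv7.2 were recorded by automated patch clamp, holding at −60 mV with steps to −30, 40 and −90 mV; current was read at the −90 mV step. Compounds were added after 5.6 μM zinc pyrithione pre-activation. % activation was normalised between 30 μM ML-213 (max) and TEA+XE-991 (leak), with EC50 from a logistic fit.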
On the technique in general: The patch-clamp technique gives a direct electrical read-out from membranes.
For the molecule `O=C(CC1(C(F)(F)F)CC1)NCC1(c2cccc(OC(F)F)n2)CCO1` (centres unmarked) [Example 132, N-[[2-[6-(difluoromethoxy)-2-pyridyl]oxetan-2-yl]methyl]-2-[1-(trifluoromethyl)cyclopropyl]acetamide], the pEC50 was 5.08.
Consider `O=C(NC/C(=C/CO)c1cccc(Cl)c1)NCC1CCCC1` [Example 78, 1-[(E)-2-(3-chlorophenyl)-4-hydroxy-but-2-enyl]-3-(cyclopentylmethyl)urea], for which the pEC50 was 5.17.
With `COc1cc(C(C)(CNC(=O)[C@H]2C[C@@H]2c2ccccc2)OC)ccn1` (mixture of isomers) [Example 52, (1S,2S)-N-[(2RS)-2-methoxy-2-(2-methoxy-4-pyridyl)propyl]-2-phenyl-cyclopropanecarboxamide], the pEC50 was 5.03.
As to `CCOC(CNC(=O)NC1CCCC1)c1cccc(Br)c1` (centres unmarked) [Example 28, 1-[2-(3-bromophenyl)-2-ethoxy-ethyl]-3-cyclopentyl-urea], the negative logarithm of the EC50 (pEC50) is 5.59.
For `N#Cc1cccc([C@@]2(CNC(=O)CC3CCCCCC3)CCO2)c1` [Example 94, N-[[(2R)-2-(3-cyanophenyl)oxetan-2-yl]methyl]-2-cycloheptyl-acetamide], the negative logarithm of the EC50 (pEC50) was 5.25.
With `CO[C@@](C)(CNC(=O)NC1CCCC1)c1cccc(Cl)c1` [Example 16, 1-[(2R)-2-(3-chlorophenyl)-2-methoxy-propyl]-3-cyclopentyl-urea] the figure was 5.54; with `N#Cc1cccc([C@]2(CNC(=O)[C@H]3C[C@@H]3c3ccc(Br)cc3)CCO2)c1` [Example 128, (1S,2S)-2-(4-bromophenyl)-N-[[(2S)-2-(3-cyanophenyl)oxetan-2-yl]methyl]cyclopropanecarboxamide], 6.33.
Take `N#Cc1cccc([C@]2(CNC(=O)[C@H]3C[C@@H]3C3CCC3)CCO2)c1` (mixture of isomers) [Example 101, (1SR,2RS)—N-[[(2S)-2-(3-cyanophenyl)oxetan-2-yl]methyl]-2-cyclobutyl-cyclopropanecarboxamide]: the negative logarithm of the EC50 (pEC50) was 6.59.
Take `CO[C@@](C)(CNC(=O)CCC(O)C(C)(C)C)c1cccc(Cl)c1` (stereo partly drawn) [Example 69, N-[(2R)-2-(3-chlorophenyl)-2-methoxy-propyl]-4-hydroxy-5,5-dimethyl-hexanamide]: the pEC50 was 5.20.
With `O=C(NC[C@@]1(c2cccc(Cl)c2)CCO1)[C@H]1C[C@@H]1c1ccccc1` [Example 40, (1S,2S)-N-[[(2S)-2-(3-chlorophenyl)oxetan-2-yl]methyl]-2-phenyl-cyclopropanecarboxamide], the pEC50 is 6.96.
To `N#Cc1cccc(C2(CNC(=O)[C@H]3C[C@@H]3c3ccccc3)CCC(=O)O2)c1` (stereo partly drawn) [Example 88, (1S,2S)—N-[[2-(3-cyanophenyl)-5-oxo-tetrahydrofuran-2-yl]methyl]-2-phenyl-cyclopropanecarboxamide] belongs 6.70; to `O=C(NCC1(c2cccc(OC(F)F)n2)CCO1)[C@H]1C[C@@H]1C(F)(F)F` (stereo partly drawn) [Example 130, (1S,2S)—N-[[2-[6-(difluoromethoxy)-2-pyridyl]oxetan-2-yl]methyl]-2-(trifluoromethyl)cyclopropanecarboxamide], 6.17; to `O=C(NCC1(c2ccnc(OC(F)F)c2)CCO1)C1CC12CCC(F)(F)CC2` (centres unmarked) [Example 118, N-[[2-[2-(difluoromethoxy)-4-pyridyl]oxetan-2-yl]methyl]-6,6-difluoro-spiro[2.5]octane-2-carboxamide], 5.26.
As to `CC(C)OC(CNC(=O)NC1CCCC1)c1cccc(Br)c1` (centres unmarked) [Example 24, 1-[2-(3-bromophenyl)-2-isopropoxy-ethyl]-3-cyclopentyl-urea], the pEC50 was 5.53.
On to `COC(C)(CNC(=O)NCC1CCCC1)c1cccc(Cl)c1` (centres unmarked) [Example 21, 1-[2-(3-chlorophenyl)-2-methoxy-propyl]-3-(cyclopentylmethyl)urea], for which the pEC50 is 6.26.
Take `N#Cc1cccc([C@]2(CNC(=O)C3CCCC34CCC4)CCO2)c1` (stereo partly drawn) [Example 104, N-[[(2S)-2-(3-cyanophenyl)oxetan-2-yl]methyl]spiro[3.4]octane-8-carboxamide]: the pEC50 was 6.29.
For the molecule `CO[C@@](C)(CNC(=O)[C@H]1C[C@H]1C1CCCC1)c1cccc(Cl)c1` (mixture of isomers) [Example 81, (1SR,2SR)—N-[(2R)-2-(3-chlorophenyl)-2-methoxy-propyl]-2-cyclopentyl-cyclopropanecarboxamide], the pEC50 was 6.30.
For `CO[C@@](C)(CNC(=O)[C@@H]1C[C@H]1C1CCCC1)c1cccc(Cl)c1` (mixture of isomers) [Example 80, (1RS,2SR)—N-[(2R)-2-(3-chlorophenyl)-2-methoxy-propyl]-2-cyclopentyl-cyclopropanecarboxamide], the pEC50 was 6.66.
In the case of `O=C(NC/C(=C/CO)c1cccc(Cl)c1)[C@H]1C[C@@H]1c1ccccc1` [Example 77, (1S,2S)—N-[(E)-2-(3-chlorophenyl)-4-hydroxy-but-2-enyl]-2-phenyl-cyclopropanecarboxamide], the pEC50 is 6.47.
With `CO[C@@](C)(CNC(=O)C1CC12CCCCC2)c1cccc(Cl)c1` (stereo partly drawn) [Example 82, N-[(2R)-2-(3-chlorophenyl)-2-methoxy-propyl]spiro[2.5]octane-2-carboxamide], the pEC50 was 6.54.
For `N#Cc1cccc(C2(CNC(=O)[C@H]3C[C@@H]3c3ccccc3)OCC2(F)F)c1` (stereo partly drawn) [Example 87, (1S,2S)—N-[[2-(3-cyanophenyl)-3,3-difluoro-oxetan-2-yl]methyl]-2-phenyl-cyclopropanecarboxamide], the pEC50 was 7.22.
In the case of `CO[C@@](C)(CNC(=O)C1CC12CCC(F)(F)CC2)c1cccc(Cl)c1` (stereo partly drawn) [Example 83, N-[(2R)-2-(3-chlorophenyl)-2-methoxy-propyl]-6,6-difluoro-spiro[2.5]octane-2-carboxamide], the pEC50 was 6.42.
Consider `O=C(NCC1(c2cccc(OC(F)F)n2)CCO1)C1CC12CCC(F)(F)CC2` (centres unmarked) [Example 120, N-[[2-[6-(difluoromethoxy)-2-pyridyl]oxetan-2-yl]methyl]-6,6-difluoro-spiro[2.5]octane-2-carboxamide], for which the negative logarithm of the EC50 (pEC50) was 6.59.
In the case of `N#Cc1cccc([C@]2(CNC(=O)[C@H]3C[C@@H]3c3ccc(F)cc3)CCO2)c1` (mixture of isomers) [Example 107, (1SR,2SR)—N-[[(2S)-2-(3-cyanophenyl)oxetan-2-yl]methyl]-2-(4-fluorophenyl)cyclopropanecarboxamide], the pEC50 is 6.89.
With `N#Cc1cccc(C2(CNC(=O)CC3CCCCC3)COC2)c1` [Example 89, N-[[3-(3-cyanophenyl)oxetan-3-yl]methyl]-2-cyclohexyl-acetamide] the figure was 5.55; with `N#CCOC(CNC(=O)CC1CCCC1)c1cccc(Cl)c1` (centres unmarked) [Example 73, N-[2-(3-chlorophenyl)-2-(cyanomethoxy)ethyl]-2-cyclopentyl-acetamide], 5.70.
To `N#Cc1cccc([C@]2(CNC(=O)[C@H]3C[C@@H]3C3CCCC3)CCO2)c1` [Example 112, (1S,2R)—N-[[(2S)-2-(3-cyanophenyl)oxetan-2-yl]methyl]-2-cyclopentyl-cyclopropanecarboxamide] belongs 7.05.
To `Cc1ccc(C2CC2C(=O)NC[C@@]2(c3cccc(C#N)c3)CCO2)o1` (stereo partly drawn) [Example 133, N-[[(2S)-2-(3-cyanophenyl)oxetan-2-yl]methyl]-2-(5-methyl-2-furyl)cyclopropanecarboxamide] belongs 6.30; to `CCOc1cccc(NC(=O)NCC(C)(OC)c2cccc(Cl)c2)c1` (centres unmarked) [Example 14, 1-[2-(3-chlorophenyl)-2-methoxy-propyl]-3-(3-ethoxyphenyl)urea], 6.22; to `CC(C)(C)[C@@H]1C[C@H]1C(=O)NC[C@@]1(c2cccc(C#N)c2)CCO1` (mixture of isomers) [Example 110, (1RS,2RS)-2-tert-butyl-N-[[(2S)-2-(3-cyanophenyl)oxetan-2-yl]methyl]cyclopropanecarboxamide], 6.31.
As for `CC[C@H]1C[C@@H]1C(=O)NC[C@@]1(c2cccc(C#N)c2)CCO1` (mixture of isomers) [Example 126, (1SR,2SR)—N-[[(2S)-2-(3-cyanophenyl)oxetan-2-yl]methyl]-2-ethyl-cyclopropanecarboxamide], the pEC50 was 5.30.
With `O=C(NCC(CCO)c1cccc(Cl)c1)[C@H]1C[C@@H]1c1ccccc1` (stereo partly drawn) [Example 92, (1S,2S)—N-[2-(3-chlorophenyl)-4-hydroxy-butyl]-2-phenyl-cyclopropanecarboxamide], the pEC50 is 5.74.
Regarding `O=C(NCC1CCCCO1)NCC1(c2cccc(Cl)c2)CC1` (centres unmarked) [Example 15, 1-[[1-(3-chlorophenyl)cyclopropyl]meth-yl]-3-(tetrahydropyran-2-ylmethyl)urea], the pEC50 was 5.16.
To `COC(C)(CNC(=O)NC1COC2(CCCC2)C1)c1cccc(Cl)c1` (centres unmarked) [Example 13, 1-[2-(3-chlorophenyl)-2-methoxy-propyl]-3-(1-oxaspiro[4.4]nonan-3-yl)urea] belongs 5.45.
`O=C(CC12CC(C1)C2)NCC1(c2cccc(Cl)c2)CCO1` (centres unmarked) [Example 63]: the pEC50 was 5.28.
Regarding `COC(C)(CNC(=O)CCC1CCCC1)c1cccc(Cl)c1` (centres unmarked) [Example 53, N-[2-(3-chlorophenyl)-2-methoxy-propyl]-3-cyclopentyl-propanamide], the negative-log EC50 (pEC50) is 6.05.
`N#Cc1cccc([C@]2(CNC(=O)[C@H]3C[C@@H]3C3CC(F)(F)C3)CCO2)c1` (mixture of isomers) [Example 127, (1SR,2RS)—N-[[(2S)-2-(3-cyanophenyl)oxetan-2-yl]methyl]-2-(3,3-difluorocyclobutyl)cyclopropanecarboxamide]: the pEC50 is 5.98.
For `N#Cc1cccc([C@]2(CNC(=O)C3C(F)(F)C34CCC4)CCO2)c1` (stereo partly drawn) [Example 96, N-[[(2S)-2-(3-cyanophenyl)oxetan-2-yl]methyl]-2,2-difluoro-spiro[2.3]hexane-1-carboxamide], the pEC50 is 5.07.
